Laboratory results reported in ChEMBL document CHEMBL1201862, “PubChem BioAssay data set” (2004).
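Tested at 5 concentrations; 48 h exposure; 96-well plates; endpoints linearly interpolated, else capped at highest concentration. Abbreviation: GI50, concentration required for 50% inhibition of growth.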 Activity calls are given as the source filed them. Cut-off read from the data, not from the text of the source: active = GI50 up to about 1.1 µM and inactive = higher. Non-standard residues stand in square brackets, D forms with d. Residues, ends and D or L forms follow the SMILES beside them. ξ: configuration not given here. *: point of attachment. NMeF = CN[C@@H](Cc1ccccc1)C(=O)O; ξNMeV = CNC(C(=O)O)C(C)C; Boc = CC(C)(C)OC(=O)*; OBn = c1ccc(CO*)cc1

Assays:
Test in all cases: NCI-60 cell line screen, 48 h
M19-MEL = system: M19-MEL
DMS-114 = system: DMS-114
DLD-1 = system: DLD-1
LXFL 529 = system: LXFL 529
DMS-273 = system: DMS-273
HOP-18 = system: HOP-18
RXF 631 = system: RXF 631
KM-20L2 = system: KM-20L2
SNB-78 = system: SNB-78

Measured: GI50

Clc1cc2n[se]nc2cc1Cl
inactive: M19-MEL > 100 µM | DMS-114 > 100 µM | DLD-1 > 100 µM | LXFL 529 > 100 µM | DMS-273 > 100 µM | HOP-18 > 100 µM | RXF 631 > 100 µM | KM-20L2 > 100 µM | SNB-78 > 100 µM

C=CCn1c(=S)sc2c(O)ncnc21
inactive: M19-MEL > 100 µM | DMS-114 > 100 µM | DLD-1 > 100 µM | LXFL 529 > 100 µM | DMS-273 > 100 µM | KM-20L2 > 100 µM | SNB-78 > 100 µM

CC(C)C(C(=O)N1CCC[C@@H]1C(=O)OCc1ccccc1)N(C)C(=O)C(C(C)C)N(C)C(=O)[C@H](Cc1ccccc1)N(C)C(=O)[C@H](NC(=O)OC(C)(C)C)C(C)C (stereo partly specified) (Boc-[dV][NMeF][ξNMeV][ξNMeV][dP]-OBn)
inactive: M19-MEL > 48.5 µM | DMS-114 8.57 µM | DLD-1 > 100 µM | LXFL 529 8.81 µM | DMS-273 42.9 µM | HOP-18 > 100 µM | KM-20L2 > 100 µM | SNB-78 > 100 µM

COc1cccc2c(SCC(=O)Nc3ccccc3-c3ccccc3NC(=O)CSc3c4ccccc4nc4c(OC)cccc34)c3ccccc3nc12
inactive: DMS-114 29.1 µM | DLD-1 > 100 µM | DMS-273 71.3 µM | RXF 631 47.6 µM | KM-20L2 > 100 µM | SNB-78 > 100 µM

COC1=C(NC(C)=O)C(=O)c2nc3n(c2C1=O)CCC3
inactive: DMS-114 12.2 µM | DLD-1 15 µM | DMS-273 18.7 µM | HOP-18 18.9 µM | KM-20L2 38.3 µM | SNB-78 13 µM

COC(=O)C(Cc1nc2ccccc2nc1C)/C(=N\NC(N)=O)C(=O)Nc1cccc([N+](=O)[O-])c1 (stereo unspecified)
inactive: M19-MEL 37.9 µM | DMS-114 51.5 µM | DLD-1 > 100 µM | LXFL 529 37.7 µM | HOP-18 > 100 µM | RXF 631 > 100 µM | KM-20L2 > 100 µM | SNB-78 > 100 µM

C1COCCN1.S=C(S)N1CCOCC1
inactive: M19-MEL 1.25 µM | LXFL 529 1.34 µM | DMS-273 1.38 µM | HOP-18 > 100 µM | KM-20L2 1.43 µM | SNB-78 41.5 µM
active: DMS-114 0.279 µM | DLD-1 0.628 µM

CCCCCC(CN1CCOCC1)C(=O)/C=C/c1ccccc1 (stereo unspecified)
inactive: M19-MEL 2.41 µM | DMS-114 1.79 µM | DMS-273 2.31 µM | KM-20L2 3.03 µM | SNB-78 6.9 µM

Nc1ccc(C(=O)O)c2[nH]c3ccccc3c(=O)c12
inactive: M19-MEL > 100 µM | DMS-114 > 100 µM | DLD-1 > 100 µM | LXFL 529 > 100 µM | DMS-273 > 100 µM | HOP-18 > 100 µM | KM-20L2 > 100 µM | SNB-78 > 100 µM

NC(=O)CCC(Nc1c2ccccc2nc2ccccc12)C(=O)O (stereo unspecified)
inactive: M19-MEL > 100 µM | DLD-1 88.3 µM | LXFL 529 > 100 µM | DMS-273 > 100 µM | RXF 631 77.3 µM | KM-20L2 > 100 µM

COCOCC[C@@H]1CC=CC(NC(=O)OCc2ccccc2)C1/C=C/C(=O)CCC1OCCO1 (stereo partly specified)
inactive: M19-MEL 19.1 µM | DMS-114 29.9 µM | DLD-1 17.1 µM | LXFL 529 22.4 µM | DMS-273 23 µM | HOP-18 34.3 µM | KM-20L2 34.9 µM | SNB-78 48.1 µM

CCCC(N)C(=O)c1ccccc1 (stereo unspecified)
inactive: DMS-114 > 100 µM | DLD-1 > 100 µM | LXFL 529 > 100 µM | DMS-273 > 100 µM | HOP-18 > 100 µM | KM-20L2 > 100 µM | SNB-78 > 100 µM

CN(c1nc(=[N+](C)C)ss1)C1CCCCC1
inactive: M19-MEL > 100 µM | DMS-114 32.1 µM | DLD-1 > 100 µM | LXFL 529 > 100 µM | DMS-273 > 100 µM | HOP-18 > 100 µM | RXF 631 > 100 µM | KM-20L2 > 100 µM | SNB-78 > 100 µM

COC(=O)C(C(=O)C(=O)Nc1ccc([N+](=O)[O-])cc1)c1nc2ccc([N+](=O)[O-])cc2nc1O (stereo unspecified)
inactive: M19-MEL > 100 µM | DMS-114 68.2 µM | DLD-1 > 100 µM | LXFL 529 43.5 µM | DMS-273 > 100 µM | HOP-18 > 100 µM | RXF 631 > 100 µM | KM-20L2 > 100 µM | SNB-78 > 100 µM

COC(=O)C1=CC2CC1C(S(=O)(=O)c1ccccc1)C2S(=O)(=O)c1ccccc1 (stereo unspecified)
inactive: M19-MEL 18.3 µM | DMS-114 15.5 µM | DLD-1 14.5 µM | LXFL 529 5.81 µM | DMS-273 10.5 µM | HOP-18 16.7 µM | RXF 631 13.5 µM | KM-20L2 16.4 µM

CCOC(=O)c1cnc2[nH]c(=O)c3ccccc3n2c1=O
inactive: M19-MEL > 100 µM | DLD-1 > 100 µM | LXFL 529 > 100 µM | DMS-273 > 100 µM | HOP-18 > 100 µM | RXF 631 > 100 µM | KM-20L2 > 100 µM | SNB-78 > 100 µM

COc1ccc2nc3cc(Cl)ccc3c(Sc3ccc([N+](=O)[O-])cc3C)c2c1
inactive: M19-MEL > 100 µM | DMS-114 > 100 µM | DLD-1 > 100 µM | LXFL 529 > 100 µM | DMS-273 > 100 µM | HOP-18 > 100 µM | KM-20L2 > 100 µM | SNB-78 > 100 µM

CCOC(=O)/C(=C/c1cccc(OC)c1)N(CC)CC
inactive: M19-MEL > 100 µM | DMS-114 > 100 µM | LXFL 529 > 100 µM | DMS-273 > 100 µM | KM-20L2 > 100 µM | SNB-78 > 100 µM

C=CCCCCCC(O)C(O)C/C=C\C/C=C\CC (stereo unspecified)
inactive: DMS-114 > 16.8 µM | DLD-1 > 18.8 µM | LXFL 529 > 18.8 µM | DMS-273 > 18.8 µM | HOP-18 > 18.8 µM | KM-20L2 > 18.8 µM | SNB-78 > 18.8 µM
